Experimental data: patent publication US20110275574A1, “METHOD OF INHIBITING PROLIFERATION OF HEPATIC STELLATE CELLS” (Agency for Science, Technology and Research, priority 2009, published 2011)
d = 2'-deoxy (DNA); r = 2'-OH (RNA)

Assays:
HSC-2 cells [1] = assay: Cell counting (proliferation) of HSC-2 cells; assay type: cell-based, rat
Method: (§1) Snai1 and connexin 43 siRNAs transfection: Shortly before transfection, 1−2×10^6 HSC-2 cells were seeded in 100 mm cell culture dishes and incubated at 37° C. The siRNA was added at a final concentration of 10 nM to 1 ml of D-MEM without serum, followed by 120 μl of HiPerfect transfection reagent (Qiagen, Germany) and incubated for 10 min. The siRNA/transfection reagent solution was added drop-wise to the cells and incubated for 24 or 48 hours. As mock control, only HiPerfect reagent was added to the cells. The Snai1 siRNAs used were Rn_Snai1—1 and Rn_Snai1—3 and the Cx43 siRNAs used were Rn_Gja1—1 and Rn_Gja1—5 (Qiagen, Germany).
Cell counting: After treatment, cells were washed once with PBS and detached using trypsin/EDTA. Following centrifugation at 800 rpm for 4 min, the cell pellet was resuspended in 1 ml D-MEM and the cells were counted using the forward scatter function of the GUAVA PCA-96 (Guava Technologies, CA, USA).

Cx43 mRNA = Cx43 mRNA expression by quantitative real-time PCR in HSC-2 cells; assay type: cell-based, rat
Method: (§2) Cell culture conditions: Primary hepatic stellate cells were isolated from male Wistar rats according to a previously published procedure (Weiskirchen and Gressner, 2005). The protocol was approved by the Institutional Animal Care and Use Committee (IACUC) of the Biomedical Research Council of Singapore. The purity of primary HSCs was assessed by vitamin A autofluorescence one day after isolation. The cell line HSC-2 was described elsewhere (Maubach et al., 2008). All cells were cultivated in a humidified 37° C. incubator circulated with 5% CO2. High glucose Dulbecco's modified Eagle medium (D-MEM) containing 10% fetal bovine serum, 100 units/ml penicillin and 100 μg/ml streptomycin was used during cell culture. Trypsin-EDTA was purchased from Biochrome (Germany). All other cell culture reagents were from Invitrogen (CA, USA).
(§3) Hepatic stellate cells treatment with recombinant human TGF-β1: Twenty four hours prior to treatment, HSCs were seeded in 75 cm^2 tissue culture flasks. At 60-70% cell confluence, recombinant human TGF-β1 (hTGF-[3]) was added at a final concentration of 1 or 10 ng/ml and incubated for 2, 6, 10, 24 or 30 hours. For the control treatment, only phosphate-buffered saline (PBS) was given to the cells. In some experiments, HSC-2 cells were treated with bisindolylmaleimide I (BIM I) at a final concentration of 5 μM for 30 min before treatment with 10 ng/ml hTGF-β1.
Reverse transcription and quantitative PCR: Total RNA was isolated from cells according to the manufacturer's protocol (RNA II kit, Machery-Nagel, Germany). All reagents for reverse transcription and real-time PCR were from Applied Biosystems (CA, USA). One microgram of total RNA was reverse transcribed to cDNA in a total reaction volume of 50 μl at conditions described in the RT kit (N8080234). Real-time PCR reactions were performed using the Fast Real Time PCR System (Applied Biosystems). Three microlitres of cDNA were used in a PCR reaction volume of 10 μl. The Taqman probes for target genes Cx43 and Snai1, as well as for endogenous control β-actin were Rn01433957_m1, Rn00441533_g1 and 4352341E, respectively. The PCR conditions were 95° C. for 20 s and 40 cycles of amplification at 95° C. for 3 s and 60° C. for 30 s.
as §1

HSC-2 cells [2] = assay: gap-FRAP analysis of gap junction intercellular communication; assay type: cell-based, rat; conditions: HSC-2, 10 ng/ml hTGF-β1, 6 hours, versus PBS control
Method: Analysis of gap junction intercellular communication: HSC-2 cells were grown in a 60 mm cell culture dish overnight. At 90% cell confluence, hTGF-β1 (final concentration 10 ng/ml) or carbenoxolone (final concentration 40 μM) was added and incubated for 6 hours. As control, only PBS was given to the cells. Alternatively, BIM I (final concentration 5 μM) was added 30 minutes before the addition of hTGF-[3]. After a brief rinse in PBS, cells were incubated in D-MEM without phenol red, containing 5,6-carboxyfluorescein diacetate (Research Organics, USA) at a final concentration of 50 μg/ml and incubated in a 37° C. humidified incubator for 30 min. The cells were then rinsed twice with PBS and D-MEM without phenol red was added before proceeding with the Fluorescence Recovery After Photobleaching (FRAP) assay. The FRAP application included in the software package of the LEICA TCS SP2 equipped with the DM6000 (LEICA, Germany) was used. A 63× immersed objective (Leica HCX APO L U-V-I 63×/0.90 Water UV) was used. The argon laser at 488 nm was used for excitation and the fluorescence signal was captured between 500 and 535 nm. The conditions were as follows: 5 pre-bleach scans at 10% laser power, 40 bleach scans at 100% laser power followed by 60 post-bleach scans at 15 seconds intervals. During the bleaching period, the Zoom mode was used to bleach a single cell (target cell) defined in a region of interest (ROI). All data were corrected for photobleaching during post-bleach acquisition using the whole scanned area. The time constant of recovery, tau (τ), was estimated by fitting the corrected experimental data (OriginPro 7 SR4, OriginLab USA) to the following function: F(t)=F0+(F∞−F0)(1−e^−t/τ), with F(t) being the corrected fluorescence intensity and F∞ being the asymptotic value of the fluorescence intensity. The transfer constant (k) was calculated from k=1/τ and normalized by dividing by the number of cells in contact with the target cell. The fluorescence recovery for each cell was about 50%.

Cx43 protein = Cx43 protein expression by Western blot in HSC-2 cells; assay type: cell-based, rat
Method: as §3, with “At 60-70% cell confluence, recombinant human TGF-β1 (hTGF-[3]) was added at a final concentration of 1 or 10 ng/ml and incubated for 2, 6, 10, 24 or 30 hours.” left out
SDS-PAGE and Western blot: Cell lysis and subsequent separation of total protein in SDS-PAGE followed by Western blot was performed as recently described (Lim et al., 2008). The membrane was blocked with 5% non-fat milk in TBS-Tween (TBS-T). The Cx43 (sc-9059, Santa Cruz Biotechnology, USA), phosphorylated Cx43 at serine 368 (pCx43 Ser368, 3511S, Cell Signaling Technology, USA), PCNA (Ab29, Abcam, UK) and β-actin (A2228, Sigma, USA) primary antibodies were applied at a dilution of 1:1000, 1:750, 1:5000 and 1:7500 respectively in blocking solution. After three washes in TBS-T, the appropriate secondary antibody conjugated with horse radish peroxidase (Santa Cruz Biotechnology, USA) was added at a dilution of 1:2000 in blocking solution. After three washes in TBS-T, the membrane was developed with ECL Plus (RPN2132, GE Healthcare, UK). […] Semi-quantitative densitometric analysis of Western blots was performed using the ImageJ software (W. Rasband, NIH; rsb.info.nih.gov/ij/). […]

Snai1 = Snai1 mRNA and protein expression (real-time PCR, Western blot) in HSC-2 cells; assay type: cell-based, rat
Method: as §3
Reverse transcription and quantitative PCR: Total RNA was isolated from cells according to the manufacturer's protocol (RNA II kit, Machery-Nagel, Germany). All reagents for reverse transcription and real-time PCR were from Applied Biosystems (CA, USA). One microgram of total RNA was reverse transcribed to cDNA in a total reaction volume of 50 μl at conditions described in the RT kit (N8080234). Real-time PCR reactions were performed using the Fast Real Time PCR System (Applied Biosystems). […]
SDS-PAGE and Western blot: Cell lysis and subsequent separation of total protein in SDS-PAGE followed by Western blot was performed as recently described (Lim et al., 2008). […] Semi-quantitative densitometric analysis of Western blots was performed using the ImageJ software (W. Rasband, NIH; rsb.info.nih.gov/ij/). […]

pCx43 Ser368 = assay: Phosphorylation of Cx43 at serine 368 by Western blot in HSC-2 cells; assay type: cell-based, rat; conditions: HSC-2, 10 ng/ml hTGF-β1, 6 hours
Method: as §3
SDS-PAGE and Western blot: Cell lysis and subsequent separation of total protein in SDS-PAGE followed by Western blot was performed as recently described (Lim et al., 2008). The membrane was blocked with 5% non-fat milk in TBS-Tween (TBS-T). The Cx43 (sc-9059, Santa Cruz Biotechnology, USA), phosphorylated Cx43 at serine 368 (pCx43 Ser368, 3511S, Cell Signaling Technology, USA), PCNA (Ab29, Abcam, UK) and β-actin (A2228, Sigma, USA) primary antibodies were applied at a dilution of 1:1000, 1:750, 1:5000 and 1:7500 respectively in blocking solution. […] Semi-quantitative densitometric analysis of Western blots was performed using the ImageJ software (W. Rasband, NIH; rsb.info.nih.gov/ij/).

[3] = system: Snai1 consensus sequence in the Cx43 promoter; assay: Electrophoretic mobility shift assay, HSC-2 nuclear extract on Snai1 consensus sequence of rat Cx43 promoter; assay type: cell-based; conditions: nuclear extract of HSC-2, 10 ng/ml hTGF-β1 2 hours, versus untreated
Text: Electrophoretic mobility shift assay: Based on the rat Cx43 gene (NW—001084790), biotinylated double-stranded oligonucleotide probe […]-3 [SEQ ID NO: 12], with the Snai1 consensus sequence (underlined), was synthesized (Research Biolabs, Singapore). In the mutated double-stranded oligonucleotide, the Snai1 consensus sequence was changed to CAGGAA. Nuclear protein extract was obtained using the NE-PER Nuclear and Cytoplasmic Extraction kit (Pierce, USA). The electrophoretic mobility shift assay was performed using reagents from the Snai1 kit according to its protocol (AY1398, Panomics, USA). Briefly, 5 μg nuclear protein extract was incubated in a reaction mixture consisting of poly d(1-C), 5× binding buffer and nuclease-free water for 5 min before addition of 1 μl probe (stock 20 nM). The total reaction volume was 10 μl. For competition assay, 2 μl unlabeled probe (stock 2 μM) was added 5 min prior to the addition of labeled probe. The reaction was incubated at 15° C. for 30 min. The samples were separated in a 6% non-denaturing polyacrylamide gel (Invitrogen) and transferred onto a nylon membrane.

Snai1 mRNA = Snai1 mRNA expression in in vitro activated primary HSCs; assay type: cell-based, rat; conditions: 1 and 10 ng/ml hTGF-β1, 10 hours
Method: as §2
as §3, with “In some experiments, HSC-2 cells were treated with bisindolylmaleimide I (BIM I) at a final concentration of 5 μM for 30 min before treatment with 10 ng/ml hTGF-β1.” left out
Reverse transcription and quantitative PCR: Total RNA was isolated from cells according to the manufacturer's protocol (RNA II kit, Machery-Nagel, Germany). […]

PCNA = assay: Expression of proliferation marker PCNA by Western blot in HSC-2 cells; assay type: cell-based, rat; conditions: HSC-2, 10 ng/ml hTGF-β1, 48 hours
Method: SDS-PAGE and Western blot: Cell lysis and subsequent separation of total protein in SDS-PAGE followed by Western blot was performed as recently described (Lim et al., 2008). The membrane was blocked with 5% non-fat milk in TBS-Tween (TBS-T). The Cx43 (sc-9059, Santa Cruz Biotechnology, USA), phosphorylated Cx43 at serine 368 (pCx43 Ser368, 3511S, Cell Signaling Technology, USA), PCNA (Ab29, Abcam, UK) and β-actin (A2228, Sigma, USA) primary antibodies were applied at a dilution of 1:1000, 1:750, 1:5000 and 1:7500 respectively in blocking solution. After three washes in TBS-T, the appropriate secondary antibody conjugated with horse radish peroxidase (Santa Cruz Biotechnology, USA) was added at a dilution of 1:2000 in blocking solution. After three washes in TBS-T, the membrane was developed with ECL Plus (RPN2132, GE Healthcare, UK). The incubation with pCx43 antibody was performed overnight at 4° C. All other incubations were carried out for 1 hour at room temperature. Semi-quantitative densitometric analysis of Western blots was performed using the ImageJ software (W. Rasband, NIH; rsb.info.nih.gov/ij/).
Snai1 and connexin 43 siRNAs transfection: Shortly before transfection, 1−2×10^6 HSC-2 cells were seeded in 100 mm cell culture dishes and incubated at 37° C. […]

[4] = HSC-2, 10 ng/ml hTGF-β1, 48 hours
[5] = HSC-2, 10 ng/ml hTGF-β1, up to 30 hours

Substance: Cx43 siRNA 5: Cx43 siRNA, sense strand r(GGU AAG CUU CCC UGG UCU A)dTdT [SEQ ID NO: 9], antisense SEQ ID NO: 10 (Qiagen) (sense GGUAAGCUUCCCUGGUCUATT; antisense UAGACCAGGGAAGCUUACCTT; sugars from the 5' end r19 d2, backbone not given here)
- total number of cells (HSC-2 cells [1]; HSC-2, Cx43 siRNA 10 nM, 48 hours, versus mock-transfected): significant decline
- down-regulation of Cx43 mRNA (Cx43 mRNA; HSC-2, Cx43 siRNA 10 nM, 48 hours, relative to mock-transfected): about 65%

Substance: hTGF-β1: recombinant human TGF-β1, pro-fibrogenic cytokine added to HSCs
- cell number (HSC-2 cells [1]; [4]): significant reduction
- transfer rate of the fluorescence dye 5,6-carboxyfluorescein diacetate (HSC-2 cells [2]): significantly lower
- expression of Cx43 (Cx43 protein; [4]): significant reduction
- Cx43 protein regulation (Cx43 protein; HSC-2, 1 and 10 ng/ml hTGF-β1, 24 hours): down-regulated
- Snai1 transcript and protein expression (Snai1; [5]): increase
- Snai1 mRNA (Snai1; HSC-2, 1 and 10 ng/ml hTGF-β1, 10 hours): induced
- decrease of Cx43 transcripts (Cx43 mRNA; HSC-2, 1 ng/ml hTGF-β1, 10 hours): 30%
- decrease of Cx43 transcripts (Cx43 mRNA; HSC-2, 10 ng/ml hTGF-β1, 10 hours): 45%
- Cx43 transcript and protein expression (Cx43 mRNA; [5]): decrease
- phosphorylation of Cx43 at serine 368 (pCx43 Ser368): increase
- EMSA band of Snai1-oligonucleotide complex [3]: more intense band
- Snai1 mRNA (Snai1 mRNA): induced
- expression of PCNA (PCNA): significant reduction
